Structures can show the parent of a compound that is named as a salt.
Tests used:
[1] = target: T1, HCV polymerase (NS5B) type 1b (Hepatitis C virus genotype 1b, UniProt P26663); assay: Assay of enzyme (HCV polymerase) inhibitory activity, type 1b enzyme; assay type: biochemical, HCV BK strain (type 1b)
T1 construct: a region encoding NS5B (J Virol 1991 March, 65(3), 1105-13, 544 amino acids after deletion of 47 amino acids on the C-terminal); 6xHis (C); made in house; host or cells: Escherichia coli
In short: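 His-tagged, C-terminally truncated NS5B (BK strain, 1b; 0.5 μg/ml) incubated with compound 60 min at 25 °C on 3′UTR-derived substrate RNA (5 μg/ml), 50 μM ATP/GTP/CTP, 2 μM UTP plus [3H]UTP, pH 7.5. Acid-precipitated RNA counted; IC50 from radioactivity with and without compound.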

[2] = target: T2, HCV polymerase (NS5B) type 1a (Hepatitis C virus genotype 1a, UniProt P26664); assay: Assay of enzyme (HCV polymerase) inhibitory activity, type 1a enzyme; assay type: biochemical, HCV type 1a (cloned from the blood of patients)
T2 construct: made in house; host or cells: Escherichia coli (by the 'similar method' of the 1b enzyme)
In short: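 His-tagged NS5B, C-terminal 47 residues deleted, type 1a at 1.5 μg/ml, with 5 μg/ml HCV 3′UTR substrate RNA, 50 μM ATP/GTP/CTP, 2 μM UTP plus [3H]UTP, pH 7.5 Tris, 5 mM MgCl2; 60 min at 25° C. TCA-precipitated RNA counted by scintillation; IC50 from radioactivity with vs. without compound.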

[3] = HCV polymerase inhibitory activity (IC50), 1b, type 1b enzyme 0.5 μg/ml, 25° C., 60 min
[4] = HCV polymerase inhibitory activity (IC50), 1a, type 1a enzyme 1.5 μg/ml, 25° C., 60 min
[5] = HCV polymerase inhibitory activity IC50, 1b, type 1b enzyme
[6] = HCV polymerase inhibitory activity IC50, 1a, type 1a enzyme

SMILES	IC50 [1, 3]	IC50 [2, 4]	IC50 [1, 5]	IC50 [2, 6]
CCC(F)(F)c1ccc(CNC(=O)[C@H]2CN(c3cnc4cnccc4n3)CCN2S(=O)(=O)c2ccc(OC(F)(F)F)cc2)cc1 [Example 648, (R)-4-pyrido[3,4-b]pyrazin-2-yl-1-(4-trifluoromethoxy-benzenesulfonyl)-piperazine-2-carboxylic acid 4-(1,1-difluoro-propyl)-benzylamide]	< 0.1 µM	< 0.1 µM	–	–
COc1nc(CNC(=O)[C@H]2CN(C(C)=O)CCN2S(=O)(=O)c2ccc(OC(F)(F)F)cc2)ccc1C [Example 649, (R)-4-acetyl-1-(4-trifluoromethoxy-benzenesulfonyl)-piperazine-2-carboxylic acid (6-methoxy-5-methyl-pyridin-2-ylmethyl)-amide]	> 1 µM	> 1 µM	–	–
CCC(F)(F)c1ccc(CNC(=O)[C@H]2CN(c3cnc4c(n3)NS(=O)(=O)NC4)CCN2S(=O)(=O)c2ccc(OC(F)(F)F)cc2)cc1 [Example 650, (R)-4-(2,2-dioxo-1,2,3,4-tetrahydro-2λ^6-pyrazino[2,3-c][1,2,6]thiadiazin-7-yl)-1-(4-trifluoromethoxy-benzenesulfonyl)-piperazine-2-carboxylic acid 4-(1,1-difluoro-propyl)-benzylamide]	< 0.1 µM	0.1 to 1 µM	–	–
CCOc1ccc(CNC(=O)[C@H]2CN(c3cnc4cncnc4n3)CCN2S(=O)(=O)c2ccc(OC(F)(F)F)cc2)cc1 [Example 651, (R)-4-pteridin-7-yl-1-(4-trifluoromethoxy-benzenesulfonyl)-piperazine-2-carboxylic acid 4-ethoxy-benzylamide]	< 0.1 µM	< 0.1 µM	–	–
O=C(NCc1ccc(-c2cccs2)cc1)[C@H]1CN(c2cnc3cncnc3n2)CCN1S(=O)(=O)c1ccc(OC(F)(F)F)cc1 [Example 652, (R)-4-pteridin-7-yl-1-(4-trifluoromethoxy-benzenesulfonyl)-piperazine-2-carboxylic acid 4-thiophen-2-yl-benzylamide]	< 0.1 µM	< 0.1 µM	–	–
O=C(NCc1ccc(Br)cc1)[C@H]1CN(c2cnc3cncnc3n2)CCN1S(=O)(=O)c1ccc(OC(F)(F)F)cc1 [Example 653, (R)-4-pteridin-7-yl-1-(4-trifluoromethoxy-benzenesulfonyl)-piperazine-2-carboxylic acid 4-bromo-benzylamide]	< 0.1 µM	< 0.1 µM	–	–
CC(=O)N1CCN(S(=O)(=O)c2ccc(OC(F)(F)F)cc2)[C@@H](C(=O)NCC2CCNCC2)C1 [Example 654, (R)-4-acetyl-1-(4-trifluoromethoxy-benzenesulfonyl)-piperazine-2-carboxylic acid (piperidin-4-ylmethyl)-amide hydrochloride]	> 1 µM	> 1 µM	–	–
CC(=O)N1CCN(S(=O)(=O)c2ccc(OC(F)(F)F)cc2)[C@@H](C(=O)NCc2ccc(Br)cc2)C1 [Example 655, (R)-4-acetyl-1-(4-trifluoromethoxy-benzenesulfonyl)-piperazine-2-carboxylic acid 4-bromo-benzylamide]	0.1 to 1 µM	0.1 to 1 µM	–	–
O=C(NCc1ccc(C2CC2)cc1)[C@H]1CN(c2cnc3cncnc3n2)CCN1S(=O)(=O)c1ccc(OC(F)(F)F)cc1 [Example 656, (R)-4-pteridin-7-yl-1-(4-trifluoromethoxy-benzenesulfonyl)-piperazine-2-carboxylic acid 4-cyclopropyl-benzylamide]	< 0.1 µM	< 0.1 µM	–	–
COCc1ccc(CNC(=O)[C@H]2CN(c3cnc4cncnc4n3)CCN2S(=O)(=O)c2ccc(OC(F)(F)F)cc2)cc1 [Example 657, (R)-4-pteridin-7-yl-1-(4-trifluoromethoxy-benzenesulfonyl)-piperazine-2-carboxylic acid 4-methoxymethyl-benzylamide]	< 0.1 µM	< 0.1 µM	–	–
COc1ccc(CNC(=O)[C@H]2CN(c3cnc4cncnc4n3)CCN2S(=O)(=O)c2ccc(OC(F)(F)F)cc2)cc1 [Example 658, (R)-4-pteridin-7-yl-1-(4-trifluoromethoxy-benzenesulfonyl)-piperazine-2-carboxylic acid 4-methoxy-benzylamide]	< 0.1 µM	< 0.1 µM	–	–
O=C(NCc1ccc(-c2cccs2)s1)[C@H]1CN(c2cnc3cncnc3n2)CCN1S(=O)(=O)c1ccc(OC(F)(F)F)cc1 [Example 659, (R)-4-pteridin-7-yl-1-(4-trifluoromethoxy-benzenesulfonyl)-piperazine-2-carboxylic acid ([2,2′]bithiophenyl-5-ylmethyl)-amide]	< 0.1 µM	< 0.1 µM	–	–
O=C(NCc1ccc(C(F)(F)F)cc1)[C@H]1CN(c2cnc3cncnc3n2)CCN1S(=O)(=O)c1ccc(OC(F)(F)F)cc1 [Example 660, (R)-4-pteridin-7-yl-1-(4-trifluoromethoxy-benzenesulfonyl)-piperazine-2-carboxylic acid 4-trifluoromethyl-benzylamide]	< 0.1 µM	< 0.1 µM	–	–
CSc1ccc(CNC(=O)[C@H]2CN(c3cnc4cncnc4n3)CCN2S(=O)(=O)c2ccc(OC(F)(F)F)cc2)cc1 [Example 661, (R)-4-pteridin-7-yl-1-(4-trifluoromethoxy-benzenesulfonyl)-piperazine-2-carboxylic acid 4-methylsulfanyl-benzylamide]	–	–	< 0.1 µM	< 0.1 µM
CCCN1CC=C(CNC(=O)[C@H]2CN(c3cnc4cncnc4n3)CCN2S(=O)(=O)c2ccc(OC(F)(F)F)cc2)CC1 [Example 662, (R)-4-pteridin-7-yl-1-(4-trifluoromethoxy-benzenesulfonyl)-piperazine-2-carboxylic acid (1-propyl-1,2,3,6-tetrahydro-pyridin-4-ylmethyl)-amide]	–	–	0.1 to 1 µM	> 1 µM
O=C(NCc1ccc(-c2ccccc2)cc1)[C@H]1CN(c2cnc3cncnc3n2)CCN1S(=O)(=O)c1ccc(OC(F)(F)F)cc1 [Example 663, (R)-4-pteridin-7-yl-1-(4-trifluoromethoxy-benzenesulfonyl)-piperazine-2-carboxylic acid (biphenyl-4-ylmethyl)-amide]	–	–	< 0.1 µM	< 0.1 µM
CCC(F)(F)c1ccc(CNC(=O)[C@H]2CN(c3nc4c(=O)[nH]ncc4s3)CCN2S(=O)(=O)c2ccc(OC(F)(F)F)cc2)cc1 [Example 664, (R)-4-(4-oxo-4,5-dihydro-thiazolo[4,5-d]pyridazin-2-yl)-1-(4-trifluoromethoxy-benzenesulfonyl)-piperazine-2-carboxylic acid 4-(1,1-difluoro-propyl)-benzylamide]	–	–	< 0.1 µM	< 0.1 µM
CC(C)(C)c1ccc(CNC(=O)[C@H]2CN(C(=O)/C=C\C(=O)O)CCN2S(=O)(=O)c2ccc(OC(F)(F)F)cc2)cc1 [Example 665, (Z)-4-[(R)-3-(4-tert-butyl-benzylcarbamoyl)-4-(4-trifluoromethoxy-benzenesulfonyl)-piperazin-1-yl]-4-oxo-but-2-enoic acid]	–	–	> 1 µM	> 1 µM
CCC(F)(F)c1ccc(CNC(=O)[C@H]2CN(C(=O)/C=C\C(=O)O)CCN2S(=O)(=O)c2ccc(OC(F)(F)F)cc2)cc1 [Example 666, (Z)-4-[(R)-3-[4-(1,1-difluoro-propyl)-benzylcarbamoyl]-4-(4-trifluoromethoxy-benzenesulfonyl)-piperazin-1-yl]-4-oxo-but-2-enoic acid]	–	–	> 1 µM	> 1 µM

From patent US8017612B2, “Piperazine compound and use thereof as a HCV polymerase inhibitor” (priority 2006, dated 2011)
